US9616062B2, “Cyclin dependent kinase inhibitors and methods of use” (priority 2009, dated 2017)

Key:
[1] = system: murine memory and naive T cells; experiment: Homeostatic T cell proliferation in mice (BrdU incorporation, Ki67); format: in vivo, mouse; details: murine cells, acute inhibition
Protocol: FIG. 11A: Acute inhibition of CDK4/6 selectively suppresses memory T cell homeostatic proliferation in mice. Mice were treated with PD0332991 (150 mg/kg by oral gavage). Proliferation of T-cells were assessed using BrdU and flow cytometry.
Animals were treated with CDK4/6 inhibitor (PD0332991, open bars) or vehicle (shaded bars) for 24 hours and euthanized. Splenocytes were isolated and stained for B and T cell markers. After gating on appropriate populations, Ki67 staining was performed as an indicator of proliferation and S-phase. Error bars show +/−SEM.
Acute, pharmacologic inhibition of CDK4/6 suppresses lymphocyte proliferation with the most pronounced effect on memory T cell homeostatic proliferation and germinal center formation in mice. To determine whether inhibiting CDK4/6 affects memory cell generation and maintenance, mice were treated with selective CDK4/6 inhibitors, PD 0332991 or an unrelated selective CDK4/6 inhibitor, 2BrIC. 2BrIC was synthesized by OTAVA Chemicals (Kiev, Ukraine) and can be prepared according to methods described in Zhu et al., J. Med. Chem. 46, 2027-2030 (2003).

[2] = system: human peripheral blood T cells (memory and naive); experiment: Human peripheral blood T cell proliferation after PMA and ionomycin stimulation (BrdU, Ki-67 FACS); format: cell-based
Protocol: FIG. 13: CDK4/6 inhibitors suppress T cell proliferation upon stimulation through TCR pathway in both memory and naïve compartments. Human peripheral blood T cells were purified using Automacs by CD3 positive selection before being treated with CDK4/6 inhibitors and stimulated with PMA and Inomycin for 48 hrs. The proliferation of memory […] T cells after stimulation by PMA and Inomycin was measured by FACS staining of BrdU+ or Ki-67+ cells. The percentages of inhibition are shown, which indicates more inhibition of memory compartment than naïve compartment.
FIG. 14: CDK4/6 inhibitors suppress T cell proliferation upon stimulation through TCR pathway. […] Proliferation determined by BrdU or Ki67 incorporation. […]
FIG. 15: Changes of CD4 T cell composition after CDK4/6 inhibition. […] The memory and terminal differentiated T cell fractions as assessed by BrdU incorporation are reduced after CDK4/6 inhibition. […]
FIG. 16: Changes of CD4 T cell composition after CDK4/6 inhibition. […] The memory and terminal differentiated T cell fractions as assessed by Ki67 staining are reduced after CDK4/6 inhibition. […]
Similar results were seen using human lymphocytes. […] In FIG. 15, the effects of CDK4/6 inhibition on specific Tcell fractions is assessed, with and without TCR, showing CDK4/6 inhibition has a greater effect on proliferation of memory cells relative to naïve cells. […]

[3] = system: purified human peripheral B cells (CD19+); experiment: Human B cell proliferation after anti-IgM stimulation (BrdU incorporation); format: cell-based
Protocol: FIG. 20: CDK4/6 inhibitors suppress B cell proliferation after stimulation through BCR. B cells were purified by Automacs selection of CD19+ cells. The BrdU incorporation of purified human peripheral B cells was determined after anti-IgM stimulation with or without CDK4/6 inhibitor treatment. The fraction of proliferating B cells reduced ˜10 fold after L4D inhibition. L4D=2BrIC
Similar results were seen using human lymphocytes. […] Human lymphocytes are sorted to T(CD3+) and B(CD19+) cells and treated in vitro with CDK4/6 inhibitor prior to stimulation with PMA and Inomycin (P+I)+OKT3 (Tcells) or IgM (Bcells), with proliferation assessed by BrdU uptake and Ki67y expression, and activation assessed by CD25 expression. […] In FIG. 15, the effects of CDK4/6 inhibition on specific Tcell fractions is assessed, with and without TCR, showing CDK4/6 inhibition has a greater effect on proliferation of memory cells relative to naïve cells. […] These alterations in proliferation are associated with decreased T cell activation as measured by CD25 expression.
Cohorts of wild type mice were treated with vehicle or a CDK4/6 inhibitor as in FIG. 11. […] Unstimulated mice were treated for 24 hours with PD0332991 and homeostatic B cell proliferation measured by Ki67 staining after appropriate sorting. […]

[4] = system: renal cell proliferation in female FVB wt mice; experiment: EdU incorporation into whole kidney of cisplatin-treated mice (flow cytometry); format: in vivo, mouse; details: kidney single cell suspension, 72 h; cisplatin 15 mg/kg IP; PD0332991 100 mg/kg per day in chow or no drug
Protocol: FIG. 6: CDK4/6 inhibition blocks EdU incorporation into whole kidney in mice treated with cisplatin. […] EdU ([…]) was given IP every 24 hours prior to sacrifice. Kidneys were collected and single cell isolates were prepared and stained for EdU incorporation. Proliferation was assessed by flow cytometry. Data represents % of EdU staining in untreated, cisplatin-treated and cisplatin/PD0332991 treated cells.
[…] Proliferation was assessed by using BrdU (1 mg IP injection) every 6 hours for 24 hours prior to sacrifice or […] (0.1 mg IP) every 24 hours for 3 days prior to sacrifice.
Kidneys were harvested from mice and single cells were isolated using a gentleMACS™ tissue dissociator (Miltinyi Biotec, Bergisch Gladbach, Germany). Briefly, kidneys were cut into small pieces and placed in 10 ml collagenase (1 mg/ml) in a gentleMACS™ C tube (Miltinyi Biotec, Bergisch Gladbach, Germany). Tissue was dissociated following the manufacturer's recommendations (Miltinyi Biotec, Bergisch Gladbach, Germany). Cells were then incubated for 5 minutes in ACK buffer to lyse red blood cells, filtered and pelleted. Cells were resuspended in 4% paraformaldehyde and stored overnight at 4° C. For quantification of EdU incorporation, the cells were fixed, permeabilized, and stained with an APC EdU Flow Kit according to the manufacturer's instruction (Invitrogen Corporation, Carlsbad, Calif., United States of America). Flow cytometric analysis was performed using a CyAn ADP (Dako, Glostrup, Denmark). For each sample, a minimum of 500,000 cells was analyzed and the data were analyzed using FlowJo software (Tree Star, Inc., Ashland, Oreg., United States of America).
The kidney is relatively quiescent until challenged by a renal insult. Therefore, to determine whether renal cell proliferation was dependent on CDK4/6 activity in vivo, renal cell proliferation was stimulated by treating female FVB wt mice with cisplatin, a known nephrotoxic chemotherapeutic agent. At time 0 hr, mice were started on chow delivering PD0332991 100 mg/kg per day or standard chow with no drug. […]

SMILES: O=C1NC(=O)c2c1c1c3ccccc3[nH]c1c1[nH]c3cc(Br)ccc3c21 [2BrIC, 2-bromo-12,13-dihydro-5H-indolo[2,3-a]pyrrolo[3,4]-carbazole-5,6-dione]
- homeostatic proliferation of memory vs naive T cells (BrdU incorporation, Ki67 expression) [1]: more significant decrease in homeostatic proliferation of memory T cells than naive T cells
- proliferation of memory vs naive T cells (BrdU incorporation, Ki67 expression) [2]: more significant decrease in homeostatic proliferation of memory T cells than naive T cells
- reduction of the fraction of proliferating B cells (BrdU) [3]: ~10 fold

SMILES: N.N.[Cl][Pt][Cl] [cisplatin]
- cells labeled with EdU [4]: approximately 17%
